# From PubChem BioAssay AID258 (DTP/NCI, 2004)
# Where “and” joins values, the source holds several entries; their conditions need not be identical. Equal values may be shown once. Toxic doses and inconclusive results are not listed.
# System: CD2F1 mice, L1210 leukemia sc, survival T/C
# Experiment: NCI In Vivo Anticancer Drug Screen. Data for tumor model L1210 Leukemia (subcutaneous) in CD2F1 (CDF1) mice
# Conditions: endpoint: median survival time, higher = longer survival
# How it was run: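 Mice with transplanted tumor dosed; survival/tumor size read; T/C vs vehicle controls.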
# [1] = dose: 23.0 mg/kg/injection, schedule: Q01DX Z (sc), vehicle: methylcellulose (MC)
# [2] = dose: 39.0 mg/kg/injection, schedule: Q01DX Z (sc), vehicle: methylcellulose (MC)
# [3] = dose: 50.0 mg/kg/injection, schedule: Q01DX009 (ip), vehicle: saline
structure (smiles),measurement,setting,value
COc1cc2c(c(OC)c1OC)-c1ccc(N)c(=O)cc1[C@@H](NC(C)=O)CC2,T/C,"dose: 1.0 mg/kg/injection, schedule: Q01DX Z (sc), vehicle: water",90 % of control
same,T/C,"dose: 2.0 mg/kg/injection, schedule: Q01DX Z (sc), vehicle: water",109 % of control
same,T/C,"dose: 4.0 mg/kg/injection, schedule: Q01DX Z (sc), vehicle: water",109 % of control
same,T/C,"dose: 8.0 mg/kg/injection, schedule: Q01DX Z (sc), vehicle: water",109 % of control
same,T/C,"dose: 16.0 mg/kg/injection, schedule: Q01DX Z (sc), vehicle: water",109 % of control
N#CC(c1ccccc1)c1cccc2ccccc12 (centres undefined),T/C,[1],109 % of control
same,T/C,[2],119 % of control
same,T/C,"dose: 65.0 mg/kg/injection, schedule: Q01DX Z (sc), vehicle: methylcellulose (MC)",152 % of control
CN(CCN(C)C(=O)CCOS(C)(=O)=O)C(=O)CCOS(C)(=O)=O,T/C,"dose: 25.0 mg/kg/injection, schedule: Q01DX009 (ip), vehicle: saline",106 % of control and 107 % of control
same,T/C,[3],123 % of control
same,T/C,"dose: 100.0 mg/kg/injection, schedule: Q01DX009 (ip), vehicle: saline",171 % of control
same,T/C,"dose: 200.0 mg/kg/injection, schedule: Q01DX009 (ip), vehicle: saline",103 % of control and 94 % of control
CC1CCC(NC(=O)N(CCCl)N=O)CC1 (centres undefined),T/C,"dose: 0.25 mg/kg/injection, schedule: Q01DX009 (ip), vehicle: saline + alcohol",96 % of control
same,T/C,"dose: 0.5 mg/kg/injection, schedule: Q01DX009 (ip), vehicle: saline + alcohol",112 % of control
same,T/C,"dose: 1.0 mg/kg/injection, schedule: Q01DX009 (ip), vehicle: saline + alcohol",122 % of control
same,T/C,"dose: 4.0 mg/kg/injection, schedule: Q01DX009 (ip), vehicle: saline + alcohol",153 % of control and 239 % of control
same,T/C,"dose: 4.0 mg/kg/injection, schedule: Q01DX009 (sc), vehicle: saline + alcohol",107 % of control
same,T/C,"dose: 5.3 mg/kg/injection, schedule: Q01DX009 (sc), vehicle: saline + alcohol",225 % of control
same,T/C,"dose: 8.0 mg/kg/injection, schedule: Q01DX009 (ip), vehicle: saline + alcohol",163 % of control and 267 % of control
same,T/C,"dose: 8.0 mg/kg/injection, schedule: Q01DX009 (sc), vehicle: saline + alcohol",120 % of control and 246 % of control
same,T/C,"dose: 10.7 mg/kg/injection, schedule: Q01DX009 (ip), vehicle: saline + alcohol",745 % of control
same,T/C,"dose: 12.0 mg/kg/injection, schedule: Q01DX009 (sc), vehicle: saline + alcohol",250 % of control
same,T/C,"dose: 16.0 mg/kg/injection, schedule: Q01DX009 (ip), vehicle: saline + alcohol",200 % of control and 230 % of control
same,T/C,"dose: 16.0 mg/kg/injection, schedule: Q01DX009 (sc), vehicle: saline + alcohol",198 % of control and 209 % of control
same,T/C,"dose: 21.4 mg/kg/injection, schedule: Q01DX009 (sc), vehicle: saline + alcohol",400 % of control
same,T/C,"dose: 24.0 mg/kg/injection, schedule: Q01DX009 (ip), vehicle: saline + alcohol",153 % of control
same,T/C,"dose: 24.0 mg/kg/injection, schedule: Q01DX009 (sc), vehicle: saline + alcohol",123 % of control
same,T/C,"dose: 32.0 mg/kg/injection, schedule: Q01DX009 (sc), vehicle: saline + alcohol",162 % of control and 203 % of control
same,T/C,"dose: 48.0 mg/kg/injection, schedule: Q01DX009 (ip), vehicle: saline + alcohol",90 % of control
same,T/C,"dose: 48.0 mg/kg/injection, schedule: Q01DX009 (sc), vehicle: saline + alcohol",189 % of control
same,T/C,"dose: 64.0 mg/kg/injection, schedule: Q01DX009 (ip), vehicle: saline + alcohol",150 % of control
same,T/C,"dose: 64.0 mg/kg/injection, schedule: Q01DX009 (sc), vehicle: saline + alcohol",122 % of control
same,T/C,"dose: 256.0 mg/kg/injection, schedule: Q01DX009 (sc), vehicle: saline + alcohol",120 % of control
O=c1n(CC2CO2)c(=O)n(CC2CO2)c(=O)n1CC1CO1 (centres undefined),T/C,"dose: 12.5 mg/kg/injection, schedule: Q04DX003 (ip), vehicle: saline",106 % of control
same,T/C,"dose: 25.0 mg/kg/injection, schedule: Q04DX003 (ip), vehicle: saline",114 % of control
same,T/C,"dose: 40.0 mg/kg/injection, schedule: Q01DX009 (ip), vehicle: saline",150 % of control and 191 % of control
same,T/C,"dose: 40.0 mg/kg/injection, schedule: Q04DX003 (ip), vehicle: saline",114 % of control
same,T/C,[3],172 % of control and 193 % of control
same,T/C,"dose: 50.0 mg/kg/injection, schedule: Q04DX003 (ip), vehicle: saline",153 % of control and 172 % of control
N#[N+]c1cnc([O-])[nH]c1=O,T/C,"dose: 14.0 mg/kg/injection, schedule: Q01DX Z (sc), vehicle: methylcellulose (MC)",100 % of control
same,T/C,[1],100 % of control
same,T/C,[2],122 % of control
same,T/C,"dose: 39.0 mg/kg/injection, schedule: Q01DX Z (sc), vehicle: other",100 % of control
same,T/C,"dose: 65.0 mg/kg/injection, schedule: Q01DX Z (sc), vehicle: other",116 % of control
